Assays:
[1] = test system: false cleavers; test: Test Example 5: herbicidal effect by foliage application, plastic box (Table 20, symbol Q); format: in vivo, false cleavers (Galium spurium); details: foliage application, three weeks after application
In short: (§1)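 Plants sown in sterilized diluvial soil and grown 14 days in a greenhouse at 25° C to 30° C, then sprayed on the foliage with the compound's emulsion diluted in water to a predetermined herbicide amount. Injury to weeds and crops scored three weeks after application on a visual rating scale.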

[2] = test system: wheat; test: Test Example 5: effect on crop by foliage application, plastic box (Table 20, symbol e); format: in vivo; details: 320 g/ha, three weeks after application
In short: as §1

[3] = test system: rapeseed; test: Test Example 5: effect on crop by foliage application, plastic box (Table 20, symbol g); format: in vivo; details: 320 g/ha, three weeks after application
In short: as §1

[4] = test system: soybean; test: Test Example 4: effect on crop by soil treatment (Table 19, symbol d); format: in vivo; details: amount of applied herbicide 320 g/ha
In short: (§2)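 Three weeks of greenhouse growth at 25° C. to 30° C. followed a uniform surface spray of water-diluted emulsion at a predetermined herbicide amount. Seeds had been sown beforehand under about 1.5 cm of sterilized diluvial soil. Grading followed criteria set out in an earlier test.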

[5] = test system: transplanted rice; test: Test Example 1: effect on crop, application before weed generation under submerged conditions (Table 16, symbol a); format: in vivo; details: amount of applied herbicide 320 g/ha
In short: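 Emulsion formulation, water-diluted to set dose, was put onto the flooded surface (4 cm depth, alluvial soil) the same day weeds were sown and 2.5-leaf rice transplanted. After 3 weeks at 25-30 °C under glass, each species was rated 0 (≤5% kill) to 5 (≥90% kill).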

[6] = test system: wheat; test: Test Example 4: effect on crop by soil treatment (Table 19, symbol e); format: in vivo; details: amount of applied herbicide 320 g/ha
In short: as §2

[7] = test system: soybean; test: Test Example 5: effect on crop by foliage application, plastic box (Table 20, symbol d); format: in vivo; details: 320 g/ha, three weeks after application
In short: as §1

[8] = test system: rapeseed; test: Test Example 4: effect on crop by soil treatment (Table 19, symbol g); format: in vivo; details: amount of applied herbicide 320 g/ha
In short: as §2

[9] = test system: beet; test: Test Example 4: effect on crop by soil treatment (Table 19, symbol f); format: in vivo; details: amount of applied herbicide 320 g/ha
In short: as §2

[10] = test system: corn; test: Test Example 4: effect on crop by soil treatment (Table 19, symbol c); format: in vivo; details: amount of applied herbicide 320 g/ha
In short: as §2

[11] = test system: beet; test: Test Example 5: effect on crop by foliage application, plastic box (Table 20, symbol f); format: in vivo; details: 320 g/ha, three weeks after application
In short: as §1

[12] = test system: corn; test: Test Example 5: effect on crop by foliage application, plastic box (Table 20, symbol c); format: in vivo; details: 320 g/ha, three weeks after application
In short: as §1

[13] = test system: directly sowed rice; test: Test Example 3: effect on crop by foliage application, Wagner pot (Table 18, symbol b); format: in vivo; details: amount of applied herbicide 320 g/ha
In short: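 Plants were sown in alluvial soil held under 0.1–0.5 cm standing water and grown 14 days in a greenhouse at 25–30 °C. An emulsifiable formulation, water-diluted to the set dose, was then sprayed onto the foliage, and effects were scored three weeks later using previously defined criteria.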

Compound | Q: false cleavers, herbicidal effect grade ([1]; 320 g/ha) | further results
CCOc1ccc(-c2sc3cc(OC)ccc3c2-c2c(O)c(C)nn(C)c2=O)cc1 [3-072] | 5 (Herbicidal rate of 90% or more (almost completely withered)) | 
CCOc1ccccc1-c1sc2cc(F)ccc2c1-c1c(O)c(C)nn(C)c1=O [3-006] | 5 (Herbicidal rate of 90% or more (almost completely withered)) | 
CCCC(=O)Oc1c(C)nn(C)c(=O)c1-c1c(-c2ccc3c(c2)OCCO3)sc2cc(F)ccc12 [3-014] | 4 (Herbicidal rate of 70% or more and less than 90%) | 
Cc1nn(C)c(=O)c(-c2c(-c3ccc4c(c3)OCCO4)oc3ccccc23)c1O [8-002] |  | herbicidal effect on false cleavers (Q) ([1]; 320 g/ha): 0 (Herbicidal rate of 5% or less (almost no effect))
CCCC(=O)Oc1c(C)nn(C)c(=O)c1-c1c(-c2ccccc2OC)sc2cc(OC)ccc12 [Compound No. 3-066, 5-(6-methoxy-2-(2-methoxyphenyl)benzo[b]thiophen-3-yl)-1,3-dimethyl-6-oxo-1,6-dihydropyridazin-4-yl=(n-butyrate)] |  | Q: false cleavers, herbicidal effect grade ([1]; 296 g/ha): 0 (Herbicidal rate of 5% or less (almost no effect))
COc1ccc2c(-c3c(O)c(C)nn(C)c3=O)c(-c3ccc(F)cc3OC)sc2c1 [3-076] | 4 (Herbicidal rate of 70% or more and less than 90%) | 
CCCC(=O)Oc1c(C)nn(C)c(=O)c1-c1c(-c2ccc3c(c2)OCCO3)oc2ccc(C)cc12 [9-013] |  | herbicidal effect on false cleavers (Q) ([1]; 320 g/ha): 0 (Herbicidal rate of 5% or less (almost no effect))
CCCC(=O)Oc1c(C)nn(C)c(=O)c1-c1c(-c2ccccc2OC)sc2cc(OCC)ccc12 [3-090] |  | Q: false cleavers, herbicidal effect grade ([1]; 310 g/ha): 5 (Herbicidal rate of 90% or more (almost completely withered))
CCCC(=O)Oc1c(C)nn(C)c(=O)c1-c1c(-c2ccc(OC)cc2)sc2cc(OC)ccc12 [3-069] | 4 (Herbicidal rate of 70% or more and less than 90%) | 
CCCC(=O)Oc1c(C)nn(C)c(=O)c1-c1c(-c2ccc(F)cc2)sc2cc(F)ccc12 [3-002] | 5 (Herbicidal rate of 90% or more (almost completely withered)) | 
CCCC(=O)Oc1c(C)nn(C)c(=O)c1-c1c(-c2ccc(F)cc2OC)sc2cc(F)ccc12 [3-010] | 5 (Herbicidal rate of 90% or more (almost completely withered)) | 
CCCC(=O)Oc1c(C)nn(C)c(=O)c1-c1c(-c2ccc(OC)cc2)sc2cc(F)ccc12 [3-008] | 4 (Herbicidal rate of 70% or more and less than 90%) | 
COc1ccccc1-c1sc2cc(F)ccc2c1-c1c(O)c(C)nn(C)c1=O [3-003] | 5 (Herbicidal rate of 90% or more (almost completely withered)) | 
CCOc1ccc2c(-c3c(O)c(C)nn(C)c3=O)c(-c3ccc(OC)cc3)sc2c1 [3-091] | 5 (Herbicidal rate of 90% or more (almost completely withered)) | 
COc1cc(F)ccc1-c1sc2cc(F)ccc2c1-c1c(O)c(C)nn(C)c1=O [3-009] | 5 (Herbicidal rate of 90% or more (almost completely withered)) | 
CCCC(=O)Oc1c(C)nn(C)c(=O)c1-c1c(-c2ccc(F)cc2OC)sc2cc(OC)ccc12 [3-077] | 3 (Herbicidal rate of 40% or more and less than 70%) | 
COc1ccc(-c2oc3ccc(F)cc3c2-c2c(O)c(C)nn(C)c2=O)cc1 [Compound No. 9-020, 4-(5-fluoro-2-(4-methoxyphenyl)benzofuran-3-yl)-5-hydroxy-2,6-dimethylpyridazin-3(2H)-one] |  | effect on crop wheat (e) [2]: 3 (Herbicidal rate of 40% or more and less than 70%); effect on crop rapeseed (g) [3]: 5 (Herbicidal rate of 90% or more (almost completely withered)); d: soybean, effect on crop grade [4]: 0 (Herbicidal rate of 5% or less (almost no effect)); Effect on crop, a: transplanted rice [5]: 0 (Herbicidal rate of 5% or less (almost no effect)); e: wheat, effect on crop grade [6]: 2 (Herbicidal rate of 20% or more and less than 40%); melting point: 248 to 250 °C; effect on crop soybean (d) [7]: 3 (Herbicidal rate of 40% or more and less than 70%); g: rapeseed, effect on crop grade [8]: 5 (Herbicidal rate of 90% or more (almost completely withered)); f: beet, effect on crop grade [9]: 4 (Herbicidal rate of 70% or more and less than 90%); c: corn, effect on crop grade [10]: 0 (Herbicidal rate of 5% or less (almost no effect)); effect on crop beet (f) [11]: 5 (Herbicidal rate of 90% or more (almost completely withered)); effect on crop corn (c) [12]: 0 (Herbicidal rate of 5% or less (almost no effect)); Effect on crop b (directly sowed rice), foliage application [13]: 0 (Herbicidal rate of 5% or less (almost no effect))
COc1ccccc1-c1sc2cc(OC3CCCC3)ccc2c1-c1c(O)c(C)nn(C)c1=O [3-109] | 1 (Herbicidal rate of 5% or more and less than 20%) | 
Cc1ccc2oc(-c3ccc4c(c3)OCCO4)c(-c3c(O)c(C)nn(C)c3=O)c2c1 [9-012] |  | herbicidal effect on false cleavers (Q) ([1]; 320 g/ha): 3 (Herbicidal rate of 40% or more and less than 70%)
CCCC(=O)Oc1c(C)nn(C)c(=O)c1-c1c(-c2ccc(OC)cc2)sc2cc(OCC)ccc12 [3-092] | 4 (Herbicidal rate of 70% or more and less than 90%) | 
CCCC(=O)Oc1c(C)nn(C)c(=O)c1-c1c(-c2ccc(F)cc2OCC)sc2cc(F)ccc12 [3-012] | 5 (Herbicidal rate of 90% or more (almost completely withered)) | 
CCOc1ccc2c(-c3c(O)c(C)nn(C)c3=O)c(-c3ccc(F)cc3OCC)sc2c1 [3-095] | 5 (Herbicidal rate of 90% or more (almost completely withered)) | 
Cc1nn(C)c(=O)c(-c2c(-c3ccc4c(c3)OCCO4)sc3cc(F)ccc23)c1O [3-013] | 5 (Herbicidal rate of 90% or more (almost completely withered)) | 
CCCC(=O)Oc1c(C)nn(C)c(=O)c1-c1c(-c2ccccc2)sc2cc(OC)ccc12 [3-062] | 4 (Herbicidal rate of 70% or more and less than 90%) | 
CCOc1ccccc1-c1sc2cc(C)ccc2c1-c1c(O)c(C)nn(C)c1=O [3-053] | 5 (Herbicidal rate of 90% or more (almost completely withered)) | 
CCCC(=O)Oc1c(C)nn(C)c(=O)c1-c1c(-c2ccc(OC(C)C)cc2)sc2cc(F)ccc12 [3-020] | 4 (Herbicidal rate of 70% or more and less than 90%) | 
CCCC(=O)Oc1c(C)nn(C)c(=O)c1-c1c(-c2ccc(F)cc2OCC)sc2cc(C)ccc12 [3-058] | 5 (Herbicidal rate of 90% or more (almost completely withered)) | 
CCOc1cc(F)ccc1-c1sc2cc(C)ccc2c1-c1c(O)c(C)nn(C)c1=O [3-057] | 5 (Herbicidal rate of 90% or more (almost completely withered)) | 
CCOc1cc(F)ccc1-c1sc2cc(F)ccc2c1-c1c(O)c(C)nn(C)c1=O [3-011] | 5 (Herbicidal rate of 90% or more (almost completely withered)) | 
CCOc1ccccc1-c1sc2cc(OC)ccc2c1-c1c(O)c(C)nn(CC)c1=O [3-085] | 4 (Herbicidal rate of 70% or more and less than 90%) | 

— patent publication US20230085307A1, “PYRIDAZINONE COMPOUND AND HERBICIDE” (NISSAN CHEMICAL CORPORATION, priority 2019, published 2023)
